The values below are quoted from earlier work in patent US20220125711A1, “CANNABINOID-CONTAINING ORAL THIN FILM FORMULATIONS” (JDEM Properties, LLC, priority 2020, published 2022).

This data set concerns Drosophila. As to conditions: dietary theanine, dose-dependent (Ki and Lim).

With `CCNC(=O)CC[C@H](N)C(=O)O` [L-theanine], the “daily amount of sleep” value is recorded as “markedly increased” and the “latency to sleep onset” value is given as “decreased”.
